Legend:
[1] = Amorphization evaluation: XRD; type: physicochemical
Description: A “RINT UltimaIII horizontal goniometer (D/teX-25)” manufactured by Rigaku Corporation was used to obtain the XRD chart of such a solid composition. The XRD measurement conditions were the focusing method, X-ray: Cu/40 kV/40 mA, scanning range: 3.0° to 50.0°, and scanning axis: 2θ/θ.

[2] = Dissolution test 1: dissolution amount; type: physicochemical; conditions: cannabidiol; 8 mg in capsule, 900 mL ion-exchanged water, 37° C., 0.45 μm filtrate
Description: As the dissolution testing apparatus, an “NTR-6600AST” manufactured by Toyama Sangyo Co., Ltd. was used; the vessel was charged with 900 mL of ion-exchanged water; for the purpose of degassing, the water was stirred overnight at a water temperature of 37° C.±0.2° C. A gelatin capsule (“HF capsule” manufactured by Matsuya Corporation) filled with the solid composition containing 8 mg of the cannabidiol was placed into a sinker, and immersed into the vessel. After a lapse of a predetermined time, sampling was performed in the vessel and the sample was filtered through a 0.45 μm membrane filter. […] The filtrate was diluted two-fold with ethanol and filtered through a 0.20 μm membrane filter; HPLC was performed to quantify the cannabidiol. For each solid composition, two samples were tested and the resultant values were averaged; the average was rounded to two decimal places to determine the dissolution amount.
The 0.45 μm membrane filter employed was “25HP045AN” (filter material: PTFE, pore size: 0.45 μm) manufactured by ADVANTEC. The 0.20 μm membrane filter employed was “13HP020AN” (filter material: PTFE, pore size: 0.20 μm) manufactured by ADVANTEC.
The HPLC conditions were column: octadecylsilyl column, solvent: mixed solution of acetonitrile/10 mM aqueous ammonium acetate solution, and wavelength: 210 nm. […]

Dissolution test 2 = type: physicochemical; conditions: composition with 0.4 mg cannabidiol in 45 g ion-exchanged water, 0.45 μm filtrate
Description: In a 50 mL screw vial, such a solid composition including 0.4 mg of cannabidiol was dissolved in 45 g of ion-exchanged water. The resultant solution was filtered through a 0.45 μm membrane filter; the filtrate was diluted two-fold with ethanol and further filtered through a 0.20 μm membrane filter; HPLC was performed to quantify the cannabidiol. The value was rounded to two decimal places to determine the dissolution amount. The 0.45 μm membrane filter, the 0.20 μm membrane filter, and the HPLC conditions were as described in the dissolution test 1.

[3] = Oral absorption evaluation: animal experiment; type: in vivo; conditions: male SD rats, 30 mg/kg in terms of cannabidiol, 0.5-24 hours, highest AUC of three rats
Description: Of the three rats, data of the highest AUC was employed.
In the LC-MS/MS measurement, as a pre-treatment, 20 μL of the plasma sample and 80 μL of methanol were placed into an Eppendorf tube and suspended for deproteinization. After the proteins were precipitated in a centrifuge, the supernatant was subjected to centrifugal filtration using a filter (manufactured by Millipore, Ultrafree-MC, Hydrophilic PTFE membrane, 0.2 μm). This solution and ultrapure water were mixed together in 1:1 (mass ratio), and used as the measurement sample. The measurement conditions of LC-MS/MS were column: octadecylsilyl column, ion source: ESI+, mobile phase: solution mixture of methanol/10 mM aqueous ammonium formate solution.
The solid composition of Example 5 was evaluated for oral absorption by an animal experiment similar to that for the solid composition of Example 3. Specifically, while the powder composed only of cannabidiol in Comparative Example 1 was used as the control, the animal experiment was performed in accordance with the above-described oral absorption evaluation method.

C=C(C)[C@@H]1CCC(C)=C[C@H]1c1c(O)cc(CCCCC)cc1O [Comparative Example 1, cannabidiol]
Form of the cannabinoid from the XRD chart (in words) [1]: crystalline state
Dissolution amount after lapse of 120 minutes [2]: 0.01 µg/mL
Dissolution amount after lapse of 240 minutes [2]: 0.01 µg/mL
Dissolution test 2 dissolution amount (Dissolution test 2): 0.03 µg/mL
AUC (area under the blood concentration time curve) of the cannabidiol ([3]; 30 mg/kg): 665 ng·h/mL
AUC ([3]; rat, plasma, read-out: AUC (area under the blood concentration time curve) of the cannabidiol): 812 ng·h/mL
